The text below walks through data of patent publication US8981141B1, “I-and II-type crystals of L-A-glyceryl phosphoryl choline, and method for preparing same” (Hanseochem Co., Ltd., priority 2011, dated 2015).

A short description of the data set: Hygroscopicity test (water content change with time under 30% humidity). In kind it is physicochemical. The note with it: for hygroscopicity (result in words): humidity condition of 30% for 10 hours; for water content after being left under humidity: humidity condition of 30%, after about 10 hours; for initial water content: raw material before exposure to humidity condition of 30%. The protocol: In the figure, X axis indicates the elapse time and Y axis the water content.
In case of the polymorphic crystal, however, the initial water content was 2.9% but increased to 4.2% after 10 hours due to absorption moisture from air.

“Also recorded” adds a separate entry of the source.

`C[N+](C)(C)CCOP(=O)(O)OC[C@H](O)CO` [Type I crystal, L-alpha-glyceryl phosphoryl choline]: the “hygroscopicity (result in words)” value is reported as “very low hygroscopicity”, the “water content after being left under humidity” value is 0.2% and the initial water content was 0.1%.
For `C[N+](C)(C)CCOP(=O)(O)OC[C@H](O)CO` [Type II crystal, L-alpha-glyceryl phosphoryl choline] the same measures were “very low hygroscopicity”, 6.5% and 6.5%.
For `C[N+](C)(C)CCOP(=O)(O)OC[C@H](O)CO` [polymorphic crystal, L-alpha-glyceryl phosphoryl choline, reference compound] the same measures were “relatively very hygroscopic; also recorded: high hygroscopicity”, 4.2% and 2.9%.
